Results: patent publication US12617790B2, “Mitragynine analogs and uses thereof” (Memorial Sloan-Kettering Cancer Center, priority 2015, dated 2026)
pEC50, pIC50, pKi: −log10 of the molar value. Like-named read-outs stand apart in the source and are kept apart here.

How the values were obtained:
DOR-1 [1] = target: T1, DOR-1 (Mus musculus, UniProt P32300); experiment: Competition binding against 125I-IBNtxA in DOR-1/CHO membranes; conditions: for Ki: 125I-IBNtxA (0.1 nM), CHO membranes, cloned mouse receptor, read-out: Affinity (Ki nM) DOR-1
T1 construct: expressed in transfected cells; host or cells: CHO

CD1 mice [2] = experiment: Radiant heat tail flick analgesia, sc, CD1 mice; assay type: in vivo; conditions: Mus musculus, 0.25 h, ED50, cumulative dose-response, tail flick 15 min after sc dose
KOR-1 [3] = target: T2, KOR-1 (Mus musculus, UniProt P33534); experiment: [35S]GTPγS functional assay, KOR-1 transfected cell membranes; assay type: biochemical
T2 construct: expressed in transfected cells; host or cells: CHO

CD1 mice [4] = experiment: Respiratory depression assessment (MouseOx pulse oximeter breath rate)
DOR-1 [5] = target: T1, DOR-1; experiment: [35S]GTPγS functional assay, DOR-1 transfected cell membranes; assay type: biochemical
MOR-1 [6] = target: T3, MOR-1 (Mus musculus, UniProt P42866); experiment: Competition binding against 125I-IBNtxA in MOR-1/CHO membranes
T3 construct: expressed in transfected cells; host or cells: CHO

KOR-1 [7] = target: T2, KOR-1; experiment: Competition binding against 125I-IBNtxA in KOR-1/CHO membranes; conditions: for Ki: 125I-IBNtxA (0.1 nM), CHO membranes, cloned mouse receptor, read-out: Affinity (Ki nM) KOR-1
MOR-1 [8] = target: T3, MOR-1; experiment: [35S]GTPγS functional assay, MOR-1 transfected cell membranes; assay type: biochemical; parameters: Emax: dose or concentration left out as unconfirmed; conditions: for Emax: read-out: MOR-1 Emax (%)
CD1 male mice [9] = experiment: Tail flick antinociception, oral by gavage, CD1 male mice; assay type: in vivo; conditions: Mus musculus, orally by gavage
CD1 male mice [10] = experiment: Tolerance study, chronic twice daily dosing, tail flick; conditions: for ED50: Mus musculus, sc
mice [11] = experiment: Gastrointestinal motility assay (charcoal meal transit); conditions: 30 min
rats = experiment: Tail flick analgesia, sc, rats; assay type: in vivo; conditions: Rattus norvegicus, 0.25 h, rats (n=3), 15 mins, cumulative dosing
CD1 mice [12] = experiment: Reversal of tail flick antinociception by selective opioid antagonists, CD1 mice; assay type: in vivo, mouse; conditions: VM1501 1.0 mg/kg sc, VM1502 1.5 mg/kg sc
CD1 mice [13] = experiment: Radiant heat tail flick analgesia, icv, CD1 mice; assay type: in vivo, mouse; conditions: ED50, cumulative dose-response, tail flick 15 min after icv dose
mice [14] = experiment: Conditioned place preference / aversion; conditions: VM1502 1.3 and 3.2 mg/kg/d, 2 days conditioning
mice [15] = experiment: Antisense oligodeoxynucleotide downregulation, tail flick antinociception; assay type: in vivo, mouse; conditions: antisense icv days 1, 3, 5, test day 6; VM1501 1.0 mg/kg sc, VM1502 1.5 mg/kg sc
mice [16] = experiment: Physical dependence, naloxone-precipitated jumping; conditions: VM1502 2x daily 2x ED50, challenge on days 5, 22, 29; 15 min count
129/Sv mice = experiment: Tail flick antinociception icv in 129/Sv mice (wild type and Exon11 knockout); assay type: in vivo, mouse; conditions: 15 min
[17] = antagonism of 100 nM U50,488H, read-out: KOR-1 IC50
[18] = FIG. 14, 5x antinociceptive ED50: VM1502 3.75 mg/kg sc, VM1512 5.0 mg/kg sc, morphine 10 mg/kg
[19] = antagonism of 100 nM DPDPE, read-out: DOR-1 IC50
[20] = agonist stimulation of [35S]GTPγS binding, read-out: MOR-1 EC50
[21] = 0 h, read-out: analgesic ED50, naïve (day 0)
[22] = FIG. 12D, 2x antinociceptive ED50: VM1502 1.2 mg/kg sc, morphine 5 mg/kg
[23] = FIG. 12D, 5x antinociceptive ED50: VM1502 3 mg/kg sc, morphine 10 mg/kg
[24] = FIG. 8C: VM1501 2.5 mg/kg sc (5x ED50), morphine 10 mg/kg, 50 min post-injection

CC[C@@H]1CN2CC[C@]3(Nc4cccc(-c5ccoc5)c4C3=O)C2C[C@@H]1/C(=C\OC)C(=O)OC (stereo partly drawn) [VM1512, (E)-methyl 2-((1'S,6'S,7'S)-6′-ethyl-4-(furan-3-yl)-3-oxo-3′,5′,6′,7′,8′,8a′-hexahydro-2′H-spiro[indoline-2,1′-indolizine]-7′-yl)-3-methoxyacrylate]
Ki (DOR-1 [1]): 1.5 nM | ED50 (CD1 mice [2]): 1.1 mg/kg | pIC50 (KOR-1 [3]; [17]): 6.69 | respiratory rate (CD1 mice [4]; [18]): showed no signs respiratory depression | pIC50 (DOR-1 [5]; [19]): 7.41 | pKi (MOR-1 [6]): 9.03 | Ki (KOR-1 [7]): 39 nM | pEC50 (MOR-1 [8]; [20]): 8.82

CC[C@@H]1CN2CC[C@]3(Nc4cccc(OC)c4C3=O)C2C[C@@H]1/C(=C\OC)C(=O)OC (stereo partly drawn) [VM1502, (E)-methyl 2-((1'S,6'S,7'S)-6′-ethyl-4-methoxy-3-oxo-3′,5′,6′,7′,8′,8a′-hexahydro-2′H-spiro[indoline-2,1′-indolizine]-7′-yl)-3-methoxyacrylate]
ED50 (CD1 male mice [9]): 7.5 mg/kg | ED50 (CD1 male mice [10]; [21]): 0.63 mg/kg | ED50 (CD1 male mice [10]; 120 h, read-out: analgesic ED50, day 5): 1.1 mg/kg | ED50 (CD1 male mice [10]; 288 h, read-out: analgesic ED50, day 12): 1.8 mg/kg | ED50 (CD1 male mice [10]; 528 h, read-out: analgesic ED50, day 22): 2 mg/kg | ED50 (CD1 male mice [10]; 696 h, read-out: analgesic ED50, day 29): 4.5 mg/kg | onset of analgesic tolerance (CD1 male mice [10]; dosed 2x daily with 2x antinociceptive ED50): very slow onset of tolerance compared with morphine | pKi (DOR-1 [1]): 8.52 | ED50 (CD1 mice [2]): 0.76 mg/kg | pIC50 (KOR-1 [3]): 7.51 | gastrointestinal transit (mice [11]; FIG. 12C: VM1502 1.5 and 4 mg/kg): lowered transit significantly compared with saline (P<0.05) but less than morphine at both doses | ED50 (rats): 1.4 mg/kg | respiratory rate (CD1 mice [4]; [22]): did not depress respiratory rate | respiratory rate (CD1 mice [4]; [23]): showed signs of respiratory depression albeit significantly less than the equianalgesic dose of morphine | respiratory rate (CD1 mice [4]; [18]): showed signs of respiratory depression albeit significantly less than the equianalgesic dose of morphine | antinociception after NTI (0.5 mg/kg sc) and norBNI (10 mg/kg sc) (CD1 mice [12]): insensitive to NTI and norBNI | antinociception after β-FNA (40 mg/kg sc) (CD1 mice [12]): antagonized by β-FNA | pIC50 (DOR-1 [5]): 7.21 | Analgesia icv (CD1 mice [13]): 0.38 µg | pKi (MOR-1 [6]): 9.10 | pKi (KOR-1 [7]): 7.62 | pEC50 (MOR-1 [8]): 8.77 | conditioned place preference or aversion (mice [14]): did not produce conditioned place preference or aversion | analgesic response after antisense downregulation (mice [15]): only affected in MOR-1-downregulated mice | physical dependence: number of jumps after naloxone (1 mg/kg) (mice [16]): not significantly greater than that of mice treated with saline

CC[C@@H]1CN2CC[C@]3(Nc4cccc(-c5ccccc5)c4C3=O)C2C[C@@H]1/C(=C\OC)C(=O)OC (stereo partly drawn) [VM1511, (E)-methyl 2-((1'S,6'S,7'S)-6′-ethyl-3-oxo-4-phenyl-3′,5′,6′,7′,8′,8a′-hexahydro-2′H-spiro[indoline-2,1′-indolizine]-7′-yl)-3-methoxyacrylate]
Ki (DOR-1 [1]): 0.8 nM | ED50 (CD1 mice [2]): 1 mg/kg | pIC50 (KOR-1 [3]; [17]): 6.77 | pEC50 (DOR-1 [5]; agonist stimulation of [35S]GTPγS binding): 9.08 | Emax (DOR-1 [5]; percent maximal stimulation relative to DPDPE, read-out: DOR-1 Emax (value in parentheses after EC50)): 89% | pKi (MOR-1 [6]): 9.04 | Ki (KOR-1 [7]): 51 nM | pEC50 (MOR-1 [8]; [20]): 8.85 | Emax (MOR-1 [8]): 123%

CC[C@@H]1CN2CCc3c([nH]c4cccc(O)c34)[C@@H]2C[C@@H]1/C(=C\OC)C(=O)OC [VM1532, Methyl (E)-2-((2S,3S,12bS)-3-ethyl-8-hydroxy-1,2,3,4,6,7,12,12b-octahydroindolo[2,3-a]quinolizin-2-yl)-3-methoxyacrylate]
Ki (DOR-1 [1]): 532 nM | Analgesia icv (CD1 mice [13]): 9 µg | pKi (MOR-1 [6]): 6.68 | Ki (KOR-1 [7]): 769 nM | pEC50 (MOR-1 [8]; [20]): 6.37 | Emax (MOR-1 [8]): 62%

CC[C@@H]1CN2CC[C@@]3(O)C(=Nc4ccccc43)[C@@H]2C[C@@H]1/C(=C\OC)C(=O)OC [VM1522, Methyl (E)-2-((2S,3S,7aS,12bS)-3-ethyl-7a-hydroxy-1,2,3,4,6,7,7a,12b-octahydroindolo[2,3-a]quinolizin-2-yl)-3-methoxyacrylate]
Ki (DOR-1 [1]): 147 nM | Analgesia icv (CD1 mice [13]): 0.1 µg | pKi (MOR-1 [6]): 7.64 | Ki (KOR-1 [7]): 781 nM | pEC50 (MOR-1 [8]; [20]): 7.47 | Emax (MOR-1 [8]): 116%

CC[C@@H]1CN2CC[C@]3(Nc4cccc(C#N)c4C3=O)C2C[C@@H]1/C(=C\OC)C(=O)OC (stereo partly drawn) [VM1509, (E)-methyl 2-((1'S,6'S,7'S)-4-cyano-6′-ethyl-3-oxo-3′,5′,6′,7′,8′,8a′-hexahydro-2′H-spiro[indoline-2,1′-indolizine]-7′-yl)-3-methoxyacrylate]
Ki (DOR-1 [1]): 2.4 nM | ED50 (CD1 mice [2]): 0.32 mg/kg | pIC50 (KOR-1 [3]; [17]): 6.14 | pIC50 (DOR-1 [5]; [19]): 7.14 | pKi (MOR-1 [6]): 9.30 | Ki (KOR-1 [7]): 47 nM | pEC50 (MOR-1 [8]; [20]): 9.15 | Emax (MOR-1 [8]): 122%

CC[C@@H]1CN2CC[C@]3(Nc4ccccc4C3=O)C2C[C@@H]1/C(=C\OC)C(=O)OC (stereo partly drawn) [VM1508, (E)-methyl 2-((1'S,6'S,7'S)-6′-ethyl-3-oxo-3′,5′,6′,7′,8′,8a′-hexahydro-2′H-spiro[indoline-2,1′-indolizine]-7′-yl)-3-methoxyacrylate]
Ki (DOR-1 [1]): 2.9 nM | ED50 (CD1 mice [2]): 0.24 mg/kg | pIC50 (KOR-1 [3]; [17]): 6.60 | pIC50 (DOR-1 [5]; [19]): 6.71 | pKi (MOR-1 [6]): 9.34 | Ki (KOR-1 [7]): 19 nM | pEC50 (MOR-1 [8]; [20]): 8.85 | Emax (MOR-1 [8]): 116%

CC[C@@H]1CN2CCc3c([nH]c4ccccc34)[C@@H]2C[C@@H]1/C(=C\OC)C(=O)OC [VM1540, Methyl (E)-2-((2S,3S,12bS)-3-ethyl-1,2,3,4,6,7,12,12b-octahydroindolo[2,3-a]quinolizin-2-yl)-3-methoxyacrylate]
Analgesia icv (CD1 mice [13]): 0.1 µg | Emax (MOR-1 [8]): 74%

CC[C@@H]1CN2CCc3c([nH]c4cccc(OC)c34)[C@@H]2C[C@@H]1/C(=C\OC)C(=O)OC [VM1500, (E)-Methyl-2-((2S,3S,12bS)-3-ethyl-8-methoxy-1,2,3,4,6,7,12,12b-octahydroindolo[2,3-a]quinolizin-2-yl)-3-methoxyacrylate]
ED50 (CD1 mice [2]): 166 mg/kg | Analgesia icv (CD1 mice [13]): 42 µg | Emax (MOR-1 [8]): 65%

CC[C@@H]1CN2CC[C@@]3(O)C(=Nc4cccc(OC)c43)C2C[C@@H]1/C(=C\OC)C(=O)OC (stereo partly drawn) [VM1501, (E)-methyl-2-((2S,3S,7aS)-3-ethyl-7a-hydroxy-8-methoxy-1,2,3,4,6,7,7a,12b-octahydroindolo[2,3-a]quinolizin-2-yl)-3-methoxyacrylate]
pKi (DOR-1 [1]): 7.04 | ED50 (CD1 mice [2]): 0.46 mg/kg | pIC50 (KOR-1 [3]): 5.60 | gastrointestinal transit (mice [11]; FIG. 8D: VM1501 0.5 and 1 mg/kg): did not lower transit significantly compared with saline | respiratory rate (CD1 mice [4]; [24]): did not depress respiratory rate | antinociception after NTI (0.5 mg/kg sc) and norBNI (10 mg/kg sc) (CD1 mice [12]): insensitive to NTI and norBNI | antinociception after β-FNA (40 mg/kg sc) (CD1 mice [12]): antagonized by β-FNA | ED50 antinociception icv, Exon11 knockout (129/Sv mice; 129/Sv Exon11 knockout mice): 0.83 µg | ED50 antinociception icv, wild type (129/Sv mice; 129/Sv wild type mice): 0.022 µg | Analgesia icv (CD1 mice [13]): 0.06 µg | pKi (MOR-1 [6]): 7.43 | pKi (KOR-1 [7]): 6.88 | pEC50 (MOR-1 [8]): 7.28 | analgesic response after antisense downregulation (mice [15]): diminished in MOR-1-downregulated mice

CN1CC[C@]23c4c5ccc(O)c4O[C@H]2[C@@H](O)C=C[C@H]3[C@H]1C5 [morphine, reference compound]
ED50 (CD1 male mice [10]; [21]): 2 mg/kg | ED50 (CD1 mice [2]): 4.6 mg/kg | respiratory rate (CD1 mice [4]; [24]): caused respiratory depression | respiratory rate (CD1 mice [4]; [22]): caused respiratory depression | respiratory rate (CD1 mice [4]; [23]): caused respiratory depression | respiratory rate (CD1 mice [4]; [18]): caused respiratory depression | Analgesia icv (CD1 mice [13]): 0.53 µg
